Test results reported in patent US20260053932A1, “COMPOUNDS AND METHODS FOR THE TARGETED DEGRADATION OF ANDROGEN RECEPTOR AND ASSOCIATED METHODS OF USE” (Arvinas Operations, Inc., priority 2020, published 2026).

tested on: androgen receptor (AR) in LNCaP and/or VCaP cells; assay: Androgen Receptor ELISA assay (AR degradation); type: cell-based; conditions: LNCaP and/or VCaP cells; 5 hours incubation; media with R1881; read-out: DC50 Code* (degradation of AR ELISA)
Procedure, shortened: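 VCaP cells grown ≥3 days, then treated 5 h with compound in media containing 1 nM R1881 (10× stock). Cells lysed and AR quantified by sandwich ELISA (mouse AR detection Ab, HRP anti-mouse, TMB). DC50 and Dmax derived from AR degradation.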

DC50 [nM] | Compound
> 100 | COc1cc(O[C@H]2CC[C@H](NC(=O)c3cnc(N4CCC(CN(C(C)C)[C@H]5C[C@H](Oc6ccc7c(c6)C(=O)N(C6CCC(=O)NC6=O)C7=O)C5)CC4)cn3)C2)ccc1C#N (stereo partly drawn) [Compound 7, N-((1S,3S)-3-(4-cyano-3-methoxyphenoxy)cyclopentyl)-5-(4-((((1r,3S)-3-((2-(2,6-dioxopiperidin-3-yl)-1,3-dioxoisoindolin-5-yl)oxy)cyclobutyl) (isopropyl)amino)methyl)piperidin-1-yl)pyrazine-2-carboxamide]
< 1 | COc1cc(O[C@H]2CC[C@H](NC(=O)c3cnc(N4CC(CN(C(C)C)[C@H]5CC[C@H](Oc6ccc7c(c6)C(=O)N(C6CCC(=O)NC6=O)C7=O)CC5)C4)cn3)CC2)ccc1C#N (some centres unmarked) [Compound 22, N-((1r,4r)-4-(4-cyano-3-methoxyphenoxy)cyclohexyl)-5-(3-((((1r,4r)-4-((2-(2,6-dioxopiperidin-3-yl)-1,3-dioxoisoindolin-5-yl)oxy)cyclohexyl) (isopropyl)amino)methyl)azetidin-1-yl)pyrazine-2-carboxamide]
< 1 | COc1cc(O[C@H]2CC[C@H](NC(=O)c3cnc(N4CCC(CN(C(C)C)[C@H]5C[C@H](Oc6ccc7c(c6)C(=O)N(C6CCC(=O)NC6=O)C7)C5)CC4)nc3)CC2)ccc1C#N (some centres unmarked) [Compound 63, N-((1r,4r)-4-(4-cyano-3-methoxyphenoxy)cyclohexyl)-2-(4-((((1r,3r)-3-((2-(2,6-dioxopiperidin-3-yl)-3-oxoisoindolin-5-yl)oxy)cyclobutyl) (isopropyl)amino)methyl)piperidin-1-yl)pyrimidine-5-carboxamide]
> 100 | COc1cc(O[C@H]2C[C@H](N(CC3CCN(c4ncc(C(=O)N[C@H]5CC[C@H](Oc6cc(C)c(C#N)c(C)c6)C5)cn4)CC3)C(C)C)C2)cc2c1C(=O)N(C1CCC(=O)NC1=O)C2=O (stereo partly drawn) [Compound 5, N-((1S,3S)-3-(4-cyano-3,5-dimethylphenoxy)cyclopentyl)-2-(4-((((1r,3S)-3-((2-(2,6-dioxopiperidin-3-yl)-7-methoxy-1,3-dioxoisoindolin-5-yl)oxy)cyclobutyl) (isopropyl)amino)methyl)piperidin-1-yl)pyrimidine-5-carboxamide]
> 100 | COc1cc(O[C@@H]2CC[C@H](NC(=O)c3cnc(N4CCC(CN(C(C)C)[C@H]5C[C@H](Oc6ccc7c(c6)C(=O)N(C6CCC(=O)NC6=O)C7=O)C5)CC4)cn3)C2)ccc1C#N (stereo partly drawn) [Compound 11, N-((1S,3R)-3-(4-cyano-3-methoxyphenoxy)cyclopentyl)-5-(4-((((1r,3S)-3-((2-(2,6-dioxopiperidin-3-yl)-1,3-dioxoisoindolin-5-yl)oxy)cyclobutyl) (isopropyl)amino)methyl)piperidin-1-yl)pyrazine-2-carboxamide]

same assay, conditions: degradation of AR ELISA in LNCaP and/or VCaP cells; Table 2C; read-out: DC50 Code*

DC50 [nM] | Compound
< 1 | CC(C)N(CC1CC2(C1)CN(c1ncc(C(=O)N[C@H]3C(C)(C)[C@H](Oc4ccc(C#N)c(Cl)c4)C3(C)C)cn1)C2)[C@H]1C[C@H](Oc2ccc3c(c2)C(=O)N(C2CCC(=O)NC2=O)C3=O)C1 (some centres unmarked) [compound 87, N-((1r,3r)-3-(3-chloro-4-cyanophenoxy)-2,2,4,4-tetramethylcyclobutyl)-2-(6-((((1r,3r)-3-((2-(2,6-dioxopiperidin-3-yl)-1,3-dioxoisoindolin-5-yl)oxy)cyclobutyl) (isopropyl)amino)methyl)-2-azaspiro[3.3]heptan-2-yl)pyrimidine-5-carboxamide]
< 1 | CC(C)N(CC1CN(c2ccc(C(=O)N[C@H]3C(C)(C)[C@H](Oc4ccc(C#N)c(Cl)c4)C3(C)C)cc2)C1)[C@H]1C[C@H](Oc2ccc3c(c2)C(=O)N(C2CCC(=O)NC2=O)C3=O)C1 (mixture of isomers) [compound 198, rac-N-((1r,3r)-3-(3-chloro-4-cyanophenoxy)-2,2,4,4-tetramethylcyclobutyl)-4-(3-((((1r,3r)-3-((2-(2,6-dioxopiperidin-3-yl)-1,3-dioxoisoindolin-5-yl)oxy)cyclobutyl) (isopropyl)amino)methyl)azetidin-1-yl)benzamide]
< 1 | COc1cc(O[C@H]2C[C@H](N(CC3CCN(c4cnc(C(=O)N[C@H]5C(C)(C)[C@H](Oc6ccc(C#N)c(Cl)c6)C5(C)C)cn4)CC3)C(C)C)C2)cc2c1CN(C1CCC(=O)NC1=O)C2=O (mixture of isomers) [compound 226, rac-N-((1r,3r)-3-(3-chloro-4-cyanophenoxy)-2,2,4,4-tetramethylcyclobutyl)-5-(4-((((1r,3r)-3-((2-(2,6-dioxopiperidin-3-yl)-7-methoxy-3-oxoisoindolin-5-yl)oxy)cyclobutyl) (isopropyl)amino)methyl)piperidin-1-yl)pyrazine-2-carboxamide]
< 1 | COc1cc(OCCN2CCOC3(CCN(c4ccc(C(=O)N[C@H]5C(C)(C)[C@H](Oc6cc(C)c(C#N)c(C)c6)C5(C)C)cc4)CC3)C2)cc2c1C(=O)N(C1CCC(=O)NC1=O)C2=O (some centres unmarked) [compound 215, N-((1r,3r)-3-(4-cyano-3,5-dimethylphenoxy)-2,2,4,4-tetramethylcyclobutyl)-4-(4-(2-((2-(2,6-dioxopiperidin-3-yl)-7-methoxy-1,3-dioxoisoindolin-5-yl)oxy)ethyl)-1-oxa-4,9-diazaspiro[5.5]undecan-9-yl)benzamide]
< 1 | Cc1cc(O[C@H]2C(C)(C)[C@H](NC(=O)c3ccc(N4CCC(CN(C(C)C)[C@H]5C[C@H](Oc6ccc7c(c6)C(=O)N(C6CCC(=O)NC6=O)C7=O)C5)CC4)cc3)C2(C)C)cc(C)c1C#N (some centres unmarked) [compound 104, N-((1r,3r)-3-(4-cyano-3,5-dimethylphenoxy)-2,2,4,4-tetramethylcyclobutyl)-4-(4-((((1r,3r)-3-((2-(2,6-dioxopiperidin-3-yl)-1,3-dioxoisoindolin-5-yl)oxy)cyclobutyl)(isopropyl)amino)methyl)piperidin-1-yl)benzamide]
< 1 | CCc1c(O[C@H]2C[C@H](N(CC3CCN(c4cnc(C(=O)N[C@H]5C(C)(C)[C@H](Oc6ccc(C#N)c(Cl)c6)C5(C)C)cn4)CC3)C(C)C)C2)ccc2c1CN(C1CCC(=O)NC1=O)C2=O (some centres unmarked) [compound 120, N-((1r,3r)-3-(3-chloro-4-cyanophenoxy)-2,2,4,4-tetramethylcyclobutyl)-5-(4-((((1r,3r)-3-((2-(2,6-dioxopiperidin-3-yl)-4-ethyl-1-oxoisoindolin-5-yl)oxy)cyclobutyl) (isopropyl)amino)methyl)piperidin-1-yl)pyrazine-2-carboxamide]
< 1 | CC(C)N(CC1CCN(c2ncc(C(=O)N[C@H]3C(C)(C)[C@H](Oc4ccc(C#N)c(Cl)c4)C3(C)C)cn2)CC1)[C@H]1CC[C@H](Oc2ccc3c(c2)C(=O)N(C2CCC(=O)NC2=O)C3=O)CC1 (some centres unmarked) [compound 84, N-((1r,3r)-3-(3-chloro-4-cyanophenoxy)-2,2,4,4-tetramethylcyclobutyl)-2-(4-((((1r,4r)-4-((2-(2,6-dioxopiperidin-3-yl)-1,3-dioxoisoindolin-5-yl)oxy)cyclohexyl) (isopropyl)amino)methyl)piperidin-1-yl)pyrimidine-5-carboxamide]
< 1 | CC1(C)[C@H](NC(=O)c2cnc(N3CCC(CN(CCN4CCOCC4)[C@H]4C[C@H](Oc5ccc6c(c5)C(=O)N(C5CCC(=O)NC5=O)C6=O)C4)CC3)cn2)C(C)(C)[C@H]1Oc1ccc(C#N)c(C#N)c1 (some centres unmarked) [compound 233, N-((1r,3r)-3-(3,4-dicyanophenoxy)-2,2,4,4-tetramethylcyclobutyl)-5-(4-((((1r,3r)-3-((2-(2,6-dioxopiperidin-3-yl)-1,3-dioxoisoindolin-5-yl)oxy)cyclobutyl)(2-morpholinoethyl)amino)methyl)piperidin-1-yl)pyrazine-2-carboxamide]
< 1 | CCN(C1CCN(c2ccc(C(=O)N[C@H]3C(C)(C)[C@H](Oc4cc(C)c(C#N)c(C)c4)C3(C)C)cc2)CC1)[C@H]1C[C@H](Oc2ccc3c(c2)C(=O)N(C2CCC(=O)NC2=O)C3=O)C1 (mixture of isomers) [compound 173, rac-N-((1r,3r)-3-(4-cyano-3,5-dimethylphenoxy)-2,2,4,4-tetramethylcyclobutyl)-4-(4-(((1r,3r)-3-((2-(2,6-dioxopiperidin-3-yl)-1,3-dioxoisoindolin-5-yl)oxy)cyclobutyl) (ethyl)amino)piperidin-1-yl)benzamide]
< 1 | CC(C)N(CC1CCN(c2cnc(C(=O)N[C@H]3C(C)(C)[C@H](Oc4ccc(C#N)c(Cl)c4)C3(C)C)cn2)CC1)[C@H]1C[C@H](Oc2ccc3c(c2)C(=O)N(C2CCC(=O)NC2=O)C3)C1 (some centres unmarked) [compound 123, N-((1r,3r)-3-(3-chloro-4-cyanophenoxy)-2,2,4,4-tetramethylcyclobutyl)-5-(4-((((1r,3r)-3-((2-(2,6-dioxopiperidin-3-yl)-3-oxoisoindolin-5-yl)oxy)cyclobutyl) (isopropyl)amino)methyl)piperidin-1-yl)pyrazine-2-carboxamide]
< 1 | COc1cc(O[C@H]2C[C@H](N(C)CC3CCN(c4cnc(C(=O)N[C@H]5C(C)(C)[C@H](Oc6cc(C)c(C#N)c(C)c6)C5(C)C)cn4)CC3)C2)cc2c1C(=O)N(C1CCC(=O)NC1=O)C2=O (mixture of isomers) [compound 218, rac-N-((1r,3r)-3-(4-cyano-3,5-dimethylphenoxy)-2,2,4,4-tetramethylcyclobutyl)-5-(4-((((1r,3r)-3-((2-(2,6-dioxopiperidin-3-yl)-7-methoxy-1,3-dioxoisoindolin-5-yl)oxy)cyclobutyl) (methyl)amino)methyl)piperidin-1-yl)pyrazine-2-carboxamide]
< 1 | [2H]C([2H])([2H])Oc1cc(O[C@H]2C[C@H](N(CC3CCN(c4ccc(C(=O)N[C@H]5C(C)(C)[C@H](Oc6ccc(C#N)c(OC)c6)C5(C)C)cc4)CC3)C(C)C)C2)cc2c1C(=O)N(C1CCC(=O)NC1=O)C2=O (mixture of isomers) [compound 159, rac-N-((1r,3r)-3-(4-cyano-3-methoxyphenoxy)-2,2,4,4-tetramethylcyclobutyl)-4-(4-((((1r,3r)-3-((2-(2,6-dioxopiperidin-3-yl)-7-(methoxy-d3)-1,3-dioxoisoindolin-5-yl)oxy)cyclobutyl) (isopropyl)amino)methyl)piperidin-1-yl)benzamide]
